Article PMC12270677, “Topological isomers of a potent wound healing peptide: Structural insights and implications for bioactivity” (The Journal of Biological Chemistry, 2025)
Positions of bridges follow the written chain, without caps; N, C: chain ends. Residues, ends and D or L forms follow the SMILES beside them. No end group written: not given here.

How the values were obtained:
[1] = system: LX-2 human hepatic stellate cell line; assay: Real-time cell proliferation assay (xCELLigence); details: for EC50: read-out: EC50, LX-2 cell proliferation, xCELLigence SP, 3000 cells per well, serum-free medium, single treatment, proliferation measured 4 days after treatment, relative to scrambled peptide control GSP, variable slope dose-response fit, six replicates per treatment; for Proliferative response of LX-2 cells at concentrations up to 400 nM: 4 days after single treatment, relative to GSP, ANOVA against peptide control
Description: Real-time cell proliferation assays using xCELLigence technology were performed to assess the effects of GRN-P4A isomers and the mutant peptide GRN-L1m on the human hepatic stellate cell line LX-2.
Figure 7 Cell proliferation assay of GRN-P4A isomers and GRN-L1m on human hepatic stellate cells (LX-2). The five peptides were tested across a concentration range of 0.16 nM to 800 nM using the LX-2 human hepatic stellate cell line. Two negative controls were included: serum-free media (SFM) and a scrambled GRN-P4A peptide (GSP). The graphs display variable slope dose–response curves fitted to proliferation data measured 4 days after a single treatment application. […] Proliferation is expressed relative to the scrambled peptide control (GSP) and presented as mean ± SEM. Statistical significance was assessed using one-way ANOVA against the peptide control. ∗ = […], ∗∗ = p < 0.01, ∗∗∗ = p < 0.001, ∗∗∗∗ = p < 0.0001.
The LX-2 human hepatic stellate cell line was generously donated by Dr Lionel Hebbard. Cells were cultured and maintained in Dulbecco’s Modified Eagle Medium/Nutrient Mixture F-12 (DMEM/F12) with GlutaMAX (Gibco) with 2 × antibiotic/antimycotic solution (penicillin, streptomycin, and amphotericin B), supplemented with 2% fetal bovine serum (FBS) (Gibco), at 37°C and 5% CO2. For the negative control, cells were treated with scrambled granulin peptide (GSP) or serum free media diluent. Dried peptide powder was resuspended in Milli-Q water to 170 μM and diluted in serum-free DMEM/F12 media.
Cell proliferation was monitored in real time using the xCELLigence SP system (ACEA Biosciences), following previously established method ([37]). LX2 cells were seeded into a 96-well xCELLigence E-plate (Agilent) at a density of 3000 cells per well in 150 μl of medium, and placed in the xCELLigence system at 37°C with 5% CO2, for overnight monitoring ([38]). Treatments were applied in serum-free medium at 20 μl per well, achieving final concentrations of […] to 800 nM, with six replicates per treatment. The cell index (CI) was continuously monitored using the Real-Time Cell Analysis (RTCA) software (Agilent), with measurements taken every hour over 6 days following treatment. Cell indices were normalized to the baseline values prior to treatment, and cell proliferation was expressed as the relative number of cells compared to the negative control GRN-scrambled peptide (GSP). Statistical analysis was conducted using two-way ANOVA test with Holm-Sidak’s correction comparing controls to treatments at each timepoint with GraphPad Prism 9.3.1 (www.graphpad.com).

[2] = system: wound healing in a mouse model; details: compared with Regranex; cited from earlier work
Text: This study highlights the structural complexity and bioactivity of isomers in disulfide-rich peptides, with a focus on GRN-P4A. GRN-P4A is a mutant peptide derived from Ov-GRN12 − 35_3s, a truncated form of the liver fluke granulin Ov-GRN-1, known for its potent wound healing properties.

[3] = NMR at three temperatures to assess interconversion of isomer 1 into isomer 2; format: physicochemical; details: αH secondary shifts at 283 K, 290 K and 310 K, 0.2 mM peptide in water/D2O
Description: NMR spectra of isomer 1 were recorded at the three different temperatures of 290 K (standard conditions), 310 K (physiological temperature), and 283 K (lower temperature) to assess potential interconversion into isomer 2, the major oxidation product.
Lyophilized peptides were rehydrated in a mixture of 500 μl water and 50 μl D2O, to obtain a final concentration of 0.2 mM. NMR spectra were recorded at temperatures of 283, 290 and 310 K using a 600 MHz Bruker Avance III spectrometer (Bruker) equipped with a cryoprobe. Chemical shifts were referenced to external DSS (sodium trimethylsilylpropanesulfonate). Two-dimensional spectra included [^1H,^1H]-TOCSY, [^1H,^1H]-H/D exchange TOCSY, [^1H,^1H]-NOESY, [^1H,^1H]-COSY, [^1H,^1H]-exclusive correlation spectroscopy, [^1H,^13 C]-HSQC, and [^1H,^15 N]-HSQC with TOCSY and NOESY mixing times of 80 ms and 200 ms, respectively. NMR data processing and analysis were performed using TopSpin (Bruker), and peak assignments were made using CcpNMR Analysis (Collaborative Computing Project for NMR) based on the method outlined by Wuthrich ([28], [29]). Backbone torsion-angle restraints for phi and psi were predicted from ^1H and ^13C chemical-shift analyses, were predicted using TALOS-N ([30]). […] The αH secondary shifts were determined by subtracting random coil ^1H NMR chemical shifts ([19]) from the experimental αH chemical shifts. […]

## CC(C)C[C@@H]1NC(=O)CNC(=O)[C@H](CCCNC(=N)N)NC(=O)[C@@H]2CSSC[C@@H](C(=O)O)NC(=O)[C@H](CSSC[C@@H]3NC(=O)[C@H]([C@@H](C)O)NC(=O)[C@H](Cc4ccc(O)cc4)NC(=O)[C@H](C(C)C)NC(=O)[C@H](C)NC(=O)[C@H](CC(=O)O)NC(=O)[C@@H]4CCCN4C(=O)[C@@H](N)CSSC[C@H](NC(=O)[C@H]([C@@H](C)O)NC(=O)[C@H](CCC(N)=O)NC(=O)CNC(=O)[C@@H]4CCCN4C(=O)[C@H](CCCNC(=N)N)NC3=O)C(=O)N2)NC(=O)CNC(=O)[C@H](Cc2ccc(O)cc2)NC(=O)CNC(=O)[C@H](Cc2c[nH]cn2)NC1=O (single isomer, unassigned) [GRN-P4A isomer 2]
[1]; LX-2 cells
  EC50: 0.093 µM

## CPDAVYTCRPGQTCCRGLHGYGCC (also: bicyclic or more (positions not given here)) [GRN-P4A isomer 4]
[1]; LX-2 cells, xCELLigence, statement in the Discussion, tested up to 800 nM
  Cell proliferation at higher concentrations: promoted cell proliferation at higher concentrations
[1]; xCELLigence, listed as isomer 4
  Proliferative response of LX-2 cells at concentrations up to 400 nM: did not produce a statistically significant response

## CC(C)C[C@@H]1NC(=O)CNC(=O)[C@H](CCCNC(=N)N)NC(=O)[C@@H]2CSSC[C@@H](C(=O)O)NC(=O)[C@H](CSSC[C@@H]3NC(=O)[C@H]([C@@H](C)O)NC(=O)[C@H](Cc4ccc(O)cc4)NC(=O)[C@H](C(C)C)NC(=O)[C@H](C)NC(=O)[C@H](CC(=O)O)NC(=O)CNC(=O)[C@@H](N)CSSC[C@H](NC(=O)[C@H]([C@@H](C)O)NC(=O)[C@H](CCC(N)=O)NC(=O)CNC(=O)[C@@H]4CCCN4C(=O)[C@H](CCCNC(=N)N)NC3=O)C(=O)N2)NC(=O)CNC(=O)[C@H](Cc2ccc(O)cc2)NC(=O)CNC(=O)[C@H](Cc2c[nH]cn2)NC1=O [GRN-L1m] (H-CGDAVYTCRPGQTCCRGLHGYGCC-OH; disulfide 1-14, 8-23, 15-24)
[1]; LX-2 cells
  EC50: 0.318 µM

## CPDAVYTCRPGQTCCRGLHGYGCC (also: bicyclic or more (positions not given here)) [GRN-P4A, 24-residue peptide containing three disulfide bonds engineered from liver-fluke granulin Ov-GRN-1]
[2]
  Wound healing activity in a mouse model: enhanced wound healing activity

## CPDAVYTCRPGQTCCRGLHGYGCC (also: bicyclic or more (positions not given here)) [GRN-P4A isomer 3]
[1]; LX-2 cells, xCELLigence, statement in the Discussion, likely due to peptide aggregation
  Cytotoxicity: displayed cytotoxicity
[1]; xCELLigence, listed as isomer 3
  Proliferative response of LX-2 cells at concentrations up to 400 nM: did not produce a statistically significant response

## CPDAVYTCRPGQTCCRGLHGYGCC (also: bicyclic or more (positions not given here)) [GRN-P4A isomer 1, Fully oxidized GRN-P4A topological isomer eluting first in RP-HPLC, mini-granulin fold]
[3]; listed as Isomer 1
  Conformational stability / interconversion into isomer 2 with temperature: retained its structure across all tested temperatures
[3]; listed as isomer 1
  Conformational stability / interconversion into isomer 2 with temperature: no evidence of interconversion
[1]; xCELLigence
  Proliferative response of LX-2 cells at concentrations up to 400 nM: did not produce a statistically significant proliferative response
[1]; xCELLigence, listed as isomer 1
  Proliferative response of LX-2 cells at concentrations up to 400 nM: did not produce a statistically significant response
